In PMC6929321 (Clinical drug investigation, 2019):
Like-named read-outs stand apart in the source and are kept apart here.

Experiments:
[1] = assay type: in vivo, human
[2] = assay type: in vivo, human; remark: listed apart in the source
[3] = assay type: in vivo, human; remark: listed apart in the source
[4] = Study P008: adverse events; assay type: in vivo, human; conditions: for AE: Abnormal dreams / AE: Diarrhea / AE: Headache / AE: Nausea / AE: Somnolence / AE: Vessel puncture site hematoma / ECI: Euphoric mood / ECI: Hypnagogic hallucination / ECI: Hypnopompic hallucination / ECI: Sleep paralysis / Subjects with ≥ 1 AE: N = 10
[5] = Study P038 diltiazem sub-study: adverse events; assay type: in vivo, human; conditions: for AE: Abnormal dreams / AE: Diarrhea / AE: Headache / AE: Nausea / AE: Somnolence / AE: Vessel puncture site hematoma / ECI: Euphoric mood / ECI: Hypnagogic hallucination / ECI: Hypnopompic hallucination / ECI: Sleep paralysis / Subjects with ≥ 1 AE: Study P038 diltiazem sub-study, N = 20
[6] = Study P038 rifampin sub-study: adverse events; assay type: in vivo, human; conditions: for AE: Abnormal dreams / AE: Diarrhea / AE: Headache / AE: Nausea / AE: Somnolence / AE: Vessel puncture site hematoma / ECI: Euphoric mood / ECI: Hypnagogic hallucination / ECI: Hypnopompic hallucination / ECI: Sleep paralysis / Subjects with ≥ 1 AE: Study P038 rifampin sub-study, N = 10
[7] = Suvorexant pharmacokinetics across both trials; assay type: in vivo; conditions: human, plasma, oral
[8] = Safety assessments across both studies; assay type: in vivo, human
[9] = in vivo; cited from earlier work
[10] = suvorexant 20 mg + diltiazem, listed as suvorexant
[11] = suvorexant 40 mg alone, listed as suvorexant

Structure (SMILES): Cc1ccc(-n2nccn2)c(C(=O)N2CCN(c3nc4cc(Cl)ccc4o3)CC[C@H]2C)c1 [Suvorexant, suvorexant]
- Prolongation (increase) in t½ on co-administration with ketoconazole ([1]; Study P008, suvorexant 4 mg, ketoconazole 400 mg once daily): 8.2 h
- AUC(0-inf) ([1]; human, plasma, po, 4 mg): 2.61 µM·h
- Cmax ([1]; human, plasma, po, 4 mg): 280 nM
- Tmax ([1]; human, plasma, po, 4 mg): 1 h
- half-life ([1]; human, plasma, po, 4 mg): 672 min
- Prolongation (increase) in t½ on co-administration with diltiazem ([2]; Study P038 diltiazem sub-study, suvorexant 20 mg, diltiazem 240 mg once daily): 3.7 h
- AUC(0-inf) ([2]; human, plasma, po, 20 mg): 7.88 µM·h
- Cmax ([2]; human, plasma, po, 20 mg): 620 nM
- Tmax ([2]; human, plasma, po, 20 mg): 1.5 h
- half-life ([2]; human, plasma, po, 20 mg): 744 min
- Decrease in suvorexant Cmax on co-administration with rifampin ([3]; Study P038, suvorexant 40 mg, rifampin 600 mg once daily): 64%
- AUC(0-inf) ([3]; human, plasma, po, 40 mg): 13.6 µM·h
- Cmax ([3]; human, plasma, po, 40 mg): 850 nM
- Tmax ([3]; human, plasma, po, 40 mg): 2 h
- half-life ([3]; human, plasma, po, 40 mg): 774 min
- AE: Abnormal dreams ([4]; suvorexant 4 mg + ketoconazole): 0 (0) n (%)
- AE: Diarrhea ([4]; suvorexant 4 mg + ketoconazole): 0 (0) n (%)
- AE: Headache ([4]; suvorexant 4 mg + ketoconazole): 1 (10) n (%)
- AE: Nausea ([4]; suvorexant 4 mg + ketoconazole): 0 (0) n (%)
- AE: Somnolence ([4]; suvorexant 4 mg + ketoconazole): 7 (70) n (%)
- AE: Vessel puncture site hematoma ([4]; suvorexant 4 mg + ketoconazole): 0 (0) n (%)
- ECI: Euphoric mood ([4]; suvorexant 4 mg + ketoconazole): 0 (0) n (%)
- ECI: Hypnagogic hallucination ([4]; suvorexant 4 mg + ketoconazole): 0 (0) n (%)
- ECI: Hypnopompic hallucination ([4]; suvorexant 4 mg + ketoconazole): 0 (0) n (%)
- ECI: Sleep paralysis ([4]; suvorexant 4 mg + ketoconazole): 0 (0) n (%)
- Subjects with ≥ 1 AE ([4]; suvorexant 4 mg + ketoconazole): 7 (70) n (%)
- AEs considered events of clinical interest (ECIs) ([4]; suvorexant 4 mg alone or with ketoconazole): no AEs were considered to be ECIs
- AE: Abnormal dreams ([4]; suvorexant 4 mg alone): 0 (0) n (%)
- AE: Diarrhea ([4]; suvorexant 4 mg alone): 0 (0) n (%)
- AE: Headache ([4]; suvorexant 4 mg alone): 0 (0) n (%)
- AE: Nausea ([4]; suvorexant 4 mg alone): 0 (0) n (%)
- AE: Somnolence ([4]; suvorexant 4 mg alone): 6 (60) n (%)
- AE: Vessel puncture site hematoma ([4]; suvorexant 4 mg alone): 0 (0) n (%)
- ECI: Euphoric mood ([4]; suvorexant 4 mg alone): 0 (0) n (%)
- ECI: Hypnagogic hallucination ([4]; suvorexant 4 mg alone): 0 (0) n (%)
- ECI: Hypnopompic hallucination ([4]; suvorexant 4 mg alone): 0 (0) n (%)
- ECI: Sleep paralysis ([4]; suvorexant 4 mg alone): 0 (0) n (%)
- Subjects with ≥ 1 AE ([4]; suvorexant 4 mg alone): 6 (60) n (%)
- AE: Abnormal dreams ([5]; suvorexant 20 mg + diltiazem): 1 (5) n (%)
- AE: Diarrhea ([5]; suvorexant 20 mg + diltiazem): 0 (0) n (%)
- AE: Headache ([5]; suvorexant 20 mg + diltiazem): 1 (5) n (%)
- AE: Nausea ([5]; suvorexant 20 mg + diltiazem): 0 (0) n (%)
- AE: Somnolence ([5]; suvorexant 20 mg + diltiazem): 17 (85) n (%)
- AE: Vessel puncture site hematoma ([5]; suvorexant 20 mg + diltiazem): 1 (5) n (%)
- ECI: Euphoric mood ([5]; suvorexant 20 mg + diltiazem): 1 (5) n (%)
- ECI: Hypnagogic hallucination ([5]; suvorexant 20 mg + diltiazem): 0 (0) n (%)
- ECI: Hypnopompic hallucination ([5]; suvorexant 20 mg + diltiazem): 0 (0) n (%)
- ECI: Sleep paralysis ([5]; suvorexant 20 mg + diltiazem): 0 (0) n (%)
- Subjects with ≥ 1 AE ([5]; suvorexant 20 mg + diltiazem): 18 (90) n (%)
- ECI: Euphoric mood [5, 10]: 1 n (%)
- Subjects with ≥ 1 AE [5, 10]: 18 (90%) n (%)
- AE: Abnormal dreams ([5]; suvorexant 20 mg alone): 1 (5) n (%)
- AE: Diarrhea ([5]; suvorexant 20 mg alone): 2 (10) n (%)
- AE: Headache ([5]; suvorexant 20 mg alone): 0 (0) n (%)
- AE: Nausea ([5]; suvorexant 20 mg alone): 2 (10) n (%)
- AE: Somnolence ([5]; suvorexant 20 mg alone): 19 (95) n (%)
- AE: Vessel puncture site hematoma ([5]; suvorexant 20 mg alone): 1 (5) n (%)
- ECI: Euphoric mood ([5]; suvorexant 20 mg alone): 0 (0) n (%)
- ECI: Hypnagogic hallucination ([5]; suvorexant 20 mg alone): 0 (0) n (%)
- ECI: Hypnopompic hallucination ([5]; suvorexant 20 mg alone): 0 (0) n (%)
- ECI: Sleep paralysis ([5]; suvorexant 20 mg alone): 0 (0) n (%)
- Subjects with ≥ 1 AE ([5]; suvorexant 20 mg alone): 20 (100) n (%)
- Subjects with ≥ 1 AE ([5]; suvorexant 20 mg alone, listed as suvorexant): 20 (100%) n (%)
- Duration of ECI euphoric mood ([5]; suvorexant 20 mg plus diltiazem): 1 h
- AE: Abnormal dreams ([6]; suvorexant 40 mg + rifampin): 3 (30) n (%)
- AE: Diarrhea ([6]; suvorexant 40 mg + rifampin): 0 (0) n (%)
- AE: Headache ([6]; suvorexant 40 mg + rifampin): 2 (20) n (%)
- AE: Nausea ([6]; suvorexant 40 mg + rifampin): 0 (0) n (%)
- AE: Somnolence ([6]; suvorexant 40 mg + rifampin): 9 (90) n (%)
- AE: Vessel puncture site hematoma ([6]; suvorexant 40 mg + rifampin): 0 (0) n (%)
- ECI: Euphoric mood ([6]; suvorexant 40 mg + rifampin): 0 (0) n (%)
- ECI: Hypnagogic hallucination ([6]; suvorexant 40 mg + rifampin): 0 (0) n (%)
- ECI: Hypnopompic hallucination ([6]; suvorexant 40 mg + rifampin): 0 (0) n (%)
- ECI: Sleep paralysis ([6]; suvorexant 40 mg + rifampin): 0 (0) n (%)
- Subjects with ≥ 1 AE ([6]; suvorexant 40 mg + rifampin): 10 (100) n (%)
- Subjects with ≥ 1 AE ([6]; suvorexant 40 mg + rifampin, listed as suvorexant): 10 (100%) n (%)
- AE: Abnormal dreams ([6]; suvorexant 40 mg alone): 2 (20) n (%)
- AE: Diarrhea ([6]; suvorexant 40 mg alone): 0 (0) n (%)
- AE: Headache ([6]; suvorexant 40 mg alone): 1 (10) n (%)
- AE: Nausea ([6]; suvorexant 40 mg alone): 0 (0) n (%)
- AE: Somnolence ([6]; suvorexant 40 mg alone): 10 (100) n (%)
- AE: Vessel puncture site hematoma ([6]; suvorexant 40 mg alone): 3 (30) n (%)
- ECI: Euphoric mood ([6]; suvorexant 40 mg alone): 1 (10) n (%)
- ECI: Hypnagogic hallucination ([6]; suvorexant 40 mg alone): 1 (10) n (%)
- ECI: Hypnopompic hallucination ([6]; suvorexant 40 mg alone): 1 (10) n (%)
- ECI: Sleep paralysis ([6]; suvorexant 40 mg alone): 1 (10) n (%)
- Subjects with ≥ 1 AE ([6]; suvorexant 40 mg alone): 10 (100) n (%)
- ECI: Euphoric mood [6, 11]: 1 n (%)
- ECI: Hypnagogic hallucination [6, 11]: 1 n (%)
- ECI: Hypnopompic hallucination [6, 11]: 1 n (%)
- ECI: Sleep paralysis [6, 11]: 1 n (%)
- Subjects with ≥ 1 AE [6, 11]: 10 (100%) n (%)
- Duration of ECI hypnopompic hallucination ([6]; suvorexant 40 mg in the rifampin sub-study): 1 min
- Tmax [7]: 1 to 2 h
- half-life ([7]; 40 mg): 672 to 774 min
- Changes in vital signs, laboratory safety tests, physical examination, or ECG monitoring ([8]; across both studies): no clinically meaningful changes
- Intensity of AEs ([8]; both trials, the moderate AE was in the P038 diltiazem sub-study): All AEs were mild in intensity, except one moderate AE of headache
- Serious AEs or deaths ([8]; either trial (P008, P038), suvorexant alone or with CYP3A inhibitor/inducer): no serious AEs or deaths
- Tolerability of single suvorexant doses ([8]; healthy subjects, co-administered with/without a CYP3A inhibitor/inducer): generally well tolerated
- Effect on psychomotor performance [9]: no clinically meaningful effect on psycho-motor performance
- Reaction time (choice reaction time and simple reaction time) [9]: statistically significant prolongation in reaction time
